According to US20240156852A1, “CARBON NANOPARTICLE COMPOSITIONS AND METHODS FOR DELIVERING THERAPEUTICS TO SPECIFIC TARGET SITES” (SINON NANO SCIENCES INC., priority 2021, published 2024):

Details: male, Wistar, rat, in vivo, po
Experimental: Wistar rats (male, 200-220 g) were obtained from the CPCSEA registered animal vendor. Animals were maintained at temperature of 23±2° C., relative humidity of 30% to 70%, and a 12 h dark-light cycle. All of the animals had free access to water and rodent chow at all times, and all of the experimental animals were fed under the above conditions throughout the acclimatization period. Wistar rats (n=1, Male) were randomly taken for each of the two groups. […] All the rats were fasted for 12 hr before administration. The blood collection was done from retro-orbital plexus using an anticoagulant-coated capillary tube at 0 (pre-dose), 0.25, 0.5, 1, 2, 4, 6, 8, and 24 hr respectively following oral administration from both the rats (Group 1 and 2). At each time point, blood sample (125 μL) was collected in EDTA tubes and tubes were immediately centrifuged at 3000 rpm for 10 min to obtain the plasma. The separated plasma was frozen at −20° C. before analysis.
The biological samples were thawed at room temperature. After vortexing for 30 seconds, 100 μL of sample was taken into 1.5 mL eppendorf tubes, 600 μL of ice-cold acetonitrile was added to denature the proteins. The tubes were vortexed for 2 minutes followed by centrifugation at 5000 rpm for 10 minutes. […]

plasma concentrations (below quantitation limits): < 31.2 ng/mL
Structure (SMILES): CC(=O)O[C@H]1C(=O)[C@@]2(C)[C@H]([C@H](OC(=O)c3ccccc3)[C@]3(O)C[C@H](OC(=O)[C@H](O)[C@@H](NC(=O)c4ccccc4)c4ccccc4)C(C)=C1C3(C)C)[C@]1(OC(C)=O)CO[C@@H]1C[C@@H]2O [Paclitaxel]
